Data from US9808443B1, “Cyclooxygenase inhibitors” (KING SAUD UNIVERSITY, priority 2016, dated 2017).

Experiments:
[1] = tested on: ethanol-induced gastric ulcer; assay: ethanol induced ulcer model (gastro-protective activity: ulcer index, mucus, PAS staining, histology); format: in vivo, rat; details: for histology of gastric tissue (in words): S3 25.6 mg/kg, indomethacin 25 mg/kg; for Ulcer index Mean ± SEM: pretreatment orally (S3 25.6 mg/kg, indomethacin 25 mg/kg) 1 hour before ethanol 95% 20 mL/kg, rats
Text: Gastric mucus plays crucial role in gastro-protection. […] The mucus was formed from mucin-type glycoprotein. The mucus gel adhering to the gastric mucosal surface defends the epithelium beneath against acid, pepsin and necrotizing agents, such as ethanol and indomethacin. […] Gastric wall mucus coating might be relieved in the repair of the damaged gastric epithelium. […] The rats were grouped into five groups (n=6). Group I and II received saline solution and served as negative-control and ulcer-control, respectively. […] The animals were sacrificed 1 hour later under anesthesia and their stomachs were quickly removed for further studies. Periodic acid-Schiff (PAS) staining was used to observe the glycogen level in control and pretreated animals. […] Ethanol-induced gastric ulcers result from several mechanisms, including reduction of gastric mucus and impaired mucosal permeability, and leads to increased leakage of hydrogen ions from the lumen and decreased transluminal membrane potential difference. With regard to the gross gastric lesion evaluation, the stomach of each rat was opened along the greater arc and washed with saline water to remove gastric contents. Gastric ulcers appear as elongated bands on the gastric mucosa with hemorrhagic lesions being parallel to the long axis of the stomach. The mucosa was assessed for damage under dissecting microscope (1.8×) and a planimeter was used to measure the ulcers area (hemorrhagic lesions). The length and width of each lesion were measured and the sum of the area of all lesions for each stomach was expressed as the ulcer area (mm^2). To determine mucus production of the gastric mucosa, the gastric mucosa of each rat was gently scraped using a glass slide and the mucus obtained was weighed using a precision electronic balance. For the histologic studies, gastric tissues were collected and fixed in 10% formalin after sacrifice. Then, each sample was embedded in paraffin and cut into 5 μm thick slices for morphological and pathological evaluation. Tissue sections were stained with hematoxylin and eosin (H & E) and examined under a light microscope.

[2] = tested on: carrageenan-induced rat paw edema; assay: carrageenan-induced rat paw edema method (anti-inflammatory activity); format: in vivo; details: for anti-inflammatory activity (in words): compared with standard drug indomethacin; for anti-inflammatory activity, % inhibition of paw edema: equimolar oral dose, rat
Method: For the experimental results described below, healthy male albino rats (200 g-220 g) were used for the study. The animals were kept in standard plastic animal cages in groups of six animals each with 12 hour light and dark cycle at 25±2° C. The rats were fed on standard rat chow and provided water ad libitum. The animals were acclimatized to laboratory conditions for a week prior to experiments. Anti-inflammatory activity of the synthesized compounds S1-S18 was determined by the carrageenan-induced rat paw edema method. The compounds were tested at equimolar oral dose and were compared with the standard drug indomethacin. […]. Three compounds, namely S14, S7 and S3 containing R=2,4,5-trimethoxyphenyl; […].
Anti-inflammatory activity was determined by a carrageenan-induced rat paw edema method. Male rats weighing 200 g were housed in a room with a controlled temperature and 12 hour light/12 hour dark cycle, housed in a specific pathogen free environment, and fed standard rodent chow and given water ad libitum. Each treatment group and vehicle group consisted of six randomly assigned animals. Compounds were administered p.o. suspension. Paw edema was induced by intradermal injection of 50 μL of 1% carrageenan into the sub plantar region of the right hind paw, after one hour of compound administration. […] The control group received only the vehicle. Increase in paw edema was compared with that in the control group and percent inhibition was calculated taking the values in the control group as 0% inhibition.

[3] = tested on: nociceptive response on hot plate; assay: hot plate test (analgesic activity); format: in vivo; set-up: concentration or dose not given beside the values; details: hot plate 58° C.; mice; 120 min after injection
Method: Male albino Swiss mice (25 g body weight) were divided into various groups (n=6). Each mouse was initially placed on a hot plate thermostatically maintained at 58° C. […] This time was considered as the control reaction time. A cut-off time of 60 s was used to avoid damage to the paws. To test the analgesic activity of the compounds, each group of mice was treated with one dose of the test compounds. The reaction time was then retested at 0 hour and 120 min after injection (each animal acted as its own control). The percentage changes in the reaction were then calculated.

[4] = LD50 determination by the Karber method; details: in vivo, mouse, 24 hours observation
Method: The LD50 of compound S3 was determined by the Karber method. […] For LD50 determination, an observation was made for each mouse for 24 hours and symptoms of toxicity and rate of mortality in each group were noted. At the end of the study period, expired animals were counted for the calculation of LD50. The following method was used for the determination of LD50: LD50=LD100−Σ×(a×b)/n, where n is the total number of animals in a group, a is the difference between two successive doses of administered extract/substance, b is the average number of dead animals in two successive doses, and LD100 is the lethal dose causing 100% death of all test animals.

COX-1 = assay: Western blot of COX-1 expression in rat gastric mucosa damaged by ethanol; format: in vivo; details: ethanol induced model, S3 25.6 mg/kg, indomethacin 25 mg/kg
gastric mucosa = details: rat, in vivo
Method: For acute ulcerogenesis testing, albino rats were divided into different groups consisting of six animals in each group. […] Control rats received p.o. administration of vehicle (suspension of 1% methyl cellulose). Food (but not water) was removed 24 hours before administration of the test compounds. After the drug treatment, the rats were fed a normal diet for 17 hours and then sacrificed. The stomach was removed and opened along the greater curvature, washed with distilled water and cleaned gently by dipping in saline. The mucosal damage was examined by means of a magnifying glass. For each stomach, the mucosal damage was assessed according to the following scoring system: 0.5 redness; 1.0 spot ulcers; 1.5 hemorrhagic streaks; 2.0 ulcers <3 but ≦5; 3.0 ulcers >5. All of the compounds were tested at equimolar oral doses.

COX-2 = assay: Western blot of COX-2 expression in rat gastric mucosa damaged by ethanol; details: ethanol induced model, S3 25.6 mg/kg, indomethacin 25 mg/kg
Method: A Western blot was performed for COX-1. […] For the Western blot analysis, 20 μg of protein was transferred to PVDF membranes, blocked in 5% skim milk in TBS buffer 1% Tween 20, and then incubated overnight with the COX-1, COX-2 and β-actin, followed by HRP-conjugated anti-rat/rabbit/goat antibodies for 2 hours at 25° C. Bands were visualized with the Luminata Western Chemiluminescent HRP Substrates and densitometric analysis of bands were assessed using LI-COR C-DiGit blot scanners.

[5] = tested on: malondialdehyde (MDA) content; details: rat, in vivo
Method: The mixture was heated at 95° C. for 60 minutes. After cooling, the reactants were supplemented with 5 mL of a mixture of n-butanol:pyridine (15:1 v/v), shaken vigorously for 1 minute and centrifuged for 10 minutes at 4000 rpm. The supernatant organic layer was taken out and absorbance was measured at 532 nm on a UV spectrophotometer. The results were expressed as nmol MDA/100 mg tissue. Data are expressed as mean±S.E.M., and the student's t-test was applied to determine the significance of the difference between the standard group and rats treated with the test compounds. The lipid peroxidation was measured as nanomoles of MDA content/100 mg of liver and kidney tissue.

[6] = pretreated rats, ethanol induced ulcer

COc1ccc2[nH]c(C)c(CC(=O)N/N=C/c3cccc([N+](=O)[O-])c3)c2c1 [Compound S3, 2-(5-methoxy-2-methyl-1H-indol-3-yl)-N′-[(E)-(3-nitrophenyl)methylidene] acetohydrazide]
histology of gastric tissue (in words) ([1]; ethanol induced ulcer): normal glandular pattern with mild inflammation and infiltration of leucocytes
PAS staining of gastric mucosa (in words) [1, 6]: substantially continuous PAS-positive mucous gel layer
mucus production by gastric mucosa (in words) [1, 6]: increased gradually
Ulcer index Mean ± SEM [1]: 2.83±0.87 mm^2
anti-inflammatory activity (in words) [2]: most potent compounds with significant anti-inflammatory activity
analgesic activity (percentage change in reaction time) [3]: 61.36%
LD50 at 24 h [4]: 35 mg/kg
COX-1 expression / inhibition by Western blot (in words) (COX-1): weak COX-1 expression
ulcerogenic activity (in words) (gastric mucosa): less ulcerogenic than the reference drug indomethacin
COX-2 expression / inhibition by Western blot (in words) (COX-2): potent COX-2 inhibition
lipid peroxidation (in words) [5]: maximum reduction in gastric ulceration and lipid peroxidation

COc1ccc2[nH]c(C)c(CC(=O)N/N=C/c3ccccc3[N+](=O)[O-])c2c1 [Compound S4, 2-(5-methoxy-2-methyl-1H-indol-3-yl)-N′-[(E)-(2-nitrophenyl)methylidene] acetohydrazide]
melting point: 210 to 212 °C

COc1ccc2[nH]c(C)c(CC(=O)N/N=C/c3ccc(Cl)cc3)c2c1 [Compound S5, N′-[(E)-(4-chlorophenyl)methylidene]-2-(5-methoxy-2-methyl-1H-indol-3-yl)acetohydrazide]
melting point: 180 to 182 °C

COc1ccc2[nH]c(C)c(CC(=O)N/N=C/c3ccc(Cl)cc3Cl)c2c1 [Compound S6, N′-[(E)-(2,4-dichlorophenyl)methylidene]-2-(5-methoxy-2-methyl-1H-indol-3-yl)acetohydrazide]
melting point: 238 to 240 °C

COc1ccc2[nH]c(C)c(CC(=O)N/N=C/c3ccc(OC)c(OC)c3)c2c1 [Compound S7, 2-(5-methoxy-2-methyl-1H-indol-3-yl)-N′-[(E)-(3,4-dimethoxyphenyl)methylidene] acetohydrazide]
anti-inflammatory activity (in words) [2]: most potent compounds with significant anti-inflammatory activity
analgesic activity (percentage change in reaction time) [3]: 47.72%
ulcerogenic activity (in words) (gastric mucosa): less ulcerogenic than the reference drug indomethacin
melting point: 210 to 212 °C

COc1ccc2[nH]c(C)c(CC(=O)N/N=C/c3ccccc3OC)c2c1 [Compound S8, 2-(5-methoxy-2-methyl-1H-indol-3-yl)-N′-[(E)-(2-methoxyphenyl)methylidene] acetohydrazide]
melting point: 220 to 222 °C

COc1ccc2[nH]c(C)c(CC(=O)N/N=C/c3ccc(O)cc3)c2c1 [Compound S9, N-[(E)-(4-hydroxyphenyl)methylidene]-2-(5-methoxy-2-methyl-1H-indol-3-yl)acetohydrazide]
analgesic activity (percentage change in reaction time) [3]: 55.81%

COc1ccc2[nH]c(C)c(CC(=O)N/N=C/c3cccc(O)c3)c2c1 [Compound S10, N′-[(E)-(3-hydroxyphenyl)methylidene]-2-(5-methoxy-2-methyl-1H-indol-3-yl)acetohydrazide]
analgesic activity (percentage change in reaction time) [3]: 62.50%
melting point: 145 to 147 °C

COc1ccc2[nH]c(C)c(CC(=O)N/N=C/c3ccc(N(C)C)cc3)c2c1 [Compound S11, 2-(5-methoxy-2-methyl-1H-indol-3-yl)-N′-{(E)-[4-(dimethylamino)phenyl]methylidene}acetohydrazide]
melting point: 200 to 202 °C

COc1cccc(/C=N/NC(=O)Cc2c(C)[nH]c3ccc(OC)cc23)c1 [Compound S12, 2-(5-methoxy-2-methyl-1H-indol-3-yl)-N′-[(E)-(3-methoxyphenyl)methylidene] acetohydrazide]
melting point: 195 to 197 °C

CCOc1ccc(/C=N/NC(=O)Cc2c(C)[nH]c3ccc(OC)cc23)cc1 [Compound S13, N′-[(E)-(4-ethoxyphenyl)methylidene]-2-(5-methoxy-2-methyl-1H-indol-3-yl)acetohydrazide]
melting point: 213 to 215 °C

COc1ccc2[nH]c(C)c(CC(=O)N/N=C/c3cc(OC)c(OC)cc3OC)c2c1 [Compound S14, 2-(5-methoxy-2-methyl-1H-indol-3-yl)-N′-[(E)-(2,4,5-trimethoxyphenyl)methylidene]acetohydrazide]
anti-inflammatory activity (in words) [2]: most potent compounds with significant anti-inflammatory activity
analgesic activity (percentage change in reaction time) [3]: 70.27%
ulcerogenic activity (in words) (gastric mucosa): less ulcerogenic than the reference drug indomethacin
melting point: 238 to 240 °C

COc1ccc2[nH]c(C)c(CC(=O)N/N=C/c3ccc(OC)c(OC)c3OC)c2c1 [Compound S15, 2-(5-methoxy-2-methyl-1H-indol-3-yl)-N′-[(E)-(2,3,4-trimethoxyphenyl)methylidene]acetohydrazide]
melting point: 250 to 252 °C

COc1ccc2[nH]c(C)c(CC(=O)N/N=C/c3cc(OC)c(OC)c(OC)c3)c2c1 [Compound S16, 2-(5-methoxy-2-methyl-1H-indol-3-yl)-N′-[(E)-(3,4,5-trimethoxyphenyl)methylidene]acetohydrazide]
melting point: 233 to 235 °C

COc1cc(OC)c(/C=N/NC(=O)Cc2c(C)[nH]c3ccc(OC)cc23)c(OC)c1 [Compound S17, 2-(5-methoxy-2-methyl-1H-indol-3-yl)-N′-[(E)-(2,4,6-trimethoxyphenyl)methylidene]acetohydrazide]
analgesic activity (percentage change in reaction time) [3]: 61.53%
melting point: 230 to 232 °C

COc1ccc(/C=N/NC(=O)Cc2c(C)[nH]c3ccc(OC)cc23)c(OC)c1 [Compound S18, 2-(5-methoxy-2-methyl-1H-indol-3-yl)-N′-[(E)-(2,4-dimethoxyphenyl)methylidene]acetohydrazide]
melting point: 170 to 172 °C

COc1ccc2c(c1)c(CC(=O)O)c(C)n2C(=O)c1ccc(Cl)cc1 [indomethacin, reference compound]
histology of gastric tissue (in words) ([1]; ethanol induced ulcer): severe ulceration in comparison with the ethanol induced ulceration
PAS staining of gastric mucosa (in words) [1, 6]: did not exhibit this magenta staining color of PAS
Ulcer index Mean ± SEM [1]: 12.34±0.73 mm^2
Ulcer index Mean ± SEM ([1]; listed as Indomethacin): 12.34 ± 0.73 mm^2
anti-inflammatory activity, % inhibition of paw edema ([2]; after 2 hours): 77.23%
anti-inflammatory activity, % inhibition of paw edema ([2]; after 4 hours): 76.89%
COX-1 expression / inhibition by Western blot (in words) (COX-1): potent COX-1 inhibitor
